# Source: patent US20210346459A1, “Application of Dalargin for the prevention of VRIs and prevention of the development of complications during VRIs” (priority 2020, published 2021)
# Read-outs that look alike come from different tables or passages of the source. Marks after values point to notes of the source that are not given here. Square brackets hold non-standard residues; d marks the D form. Peptide text beside a SMILES is read from it.
# Legend:
# [1] = test system: influenza virus A/Puerto Rico/8/34 (H1N1); assay type: in vivo, Balb/c mice
# [2] = in vivo; cited from earlier work
# [3] = Group 4: inhalation of 1% solution 14 min twice a day, 0.36 mg/kg
# [4] = Group 4: inhalation of 1% solution 14 min twice a day, 0.36 mg/kg, 30 animals
# [5] = Group 5: inhalation of 3% solution 45 min twice a day, 1.74 mg/kg
# [6] = Group 5: inhalation of 3% solution 45 min twice a day, 1.74 mg/kg, 30 animals
# [7] = Group 6: inhalation of 5% solution 55 min twice a day, 3.54 mg/kg
# [8] = Group 6: inhalation of 5% solution 55 min twice a day, 3.54 mg/kg, 30 animals
# [9] = Group 8: inhalation of 3% solution 45 min twice a day, prophylactic only
# [10] = Group 8: inhalation of 3% solution 45 min twice a day, prophylactic only (days 3, 2, 1 and 1 hour before challenge), 30 animals
# [11] = Group 9: nasally + pharyngeal spray 0.5 mg/kg, prophylactic only
# [12] = Group 9: nasally + pharyngeal spray 0.5 mg/kg, prophylactic only, 30 animals
structure (smiles),measurement,setting,value
"CC(C)C[C@H](NC(=O)[C@H](Cc1ccccc1)NC(=O)CNC(=O)[C@@H](C)NC(=O)[C@@H](N)Cc1ccc(O)cc1)C(=O)N[C@@H](CCCNC(=N)N)C(=O)O [Dalargin, tyrosyl-D-alanyl-glycyl-phenylalanyl-leucyl-arginine diacetate] (H-Y[dA]GFLR-OH)",Protective effect on lung tissue and lung function compared with comparators,[1]; Dalargin inhalation,superior to that of Tamiflu and Kagocel
same,"Mortality, %",[1]; [3],10.00%
same,"Protective index, %",[1]; [3],88.46%
same,Mortality by day 9,[1]; [4],2
same,Mortality by day 11,[1]; [4],1
same,Residue,[1]; [4],27*
same,"Mortality, %",[1]; [5],6.67%
same,"Protective index, %",[1]; [5],92.30%
same,Mortality by day 8,[1]; [6],1
same,Mortality by day 10,[1]; [6],1
same,Residue,[1]; [6],28*
same,"Mortality, %",[1]; [7],6.67%
same,"Protective index, %",[1]; [7],92.30%
same,Mortality by day 7,[1]; [8],1
same,Mortality by day 10,[1]; [8],1
same,Residue,[1]; [8],28*
same,"Mortality, %",[1]; [9],40.00%
same,"Protective index, %",[1]; [9],53.85%
same,Mortality by day 5,[1]; [10],1
same,Mortality by day 6,[1]; [10],3
same,Mortality by day 7,[1]; [10],2
same,Mortality by day 8,[1]; [10],3
same,Mortality by day 9,[1]; [10],3
same,Residue,"[1]; Group 8: inhalation of 3% solution 45 min twice a day, prophylactic only, 30 animals",18
same,"Mortality, %",[1]; [11],50.00%
same,"Protective index, %",[1]; [11],42.31%
same,Mortality by day 6,[1]; [12],4
same,Mortality by day 7,[1]; [12],4
same,Mortality by day 8,[1]; [12],4
same,Mortality by day 9,[1]; [12],2
same,Mortality by day 10,[1]; [12],1
same,Residue,[1]; [12],15
same,"Histological features of lung tissue, day 3 after challenge","[1]; oedema, neutrophilic infiltration, collapsed alveolae relative to control",far less pronounced
same,Efficacy attributed exclusively to the prophylactic protective effect,"[1]; preventive administration, without the therapeutic component",50%
same,"Histological features of lung tissue, day 12",[1]; surviving animals,One half of the animals receiving Dalargin exhibited no signs of pathology
same,LD50,[2],2.5 g/kg
